Laboratory results published in US9920300B2, “Induction of germ cells from pluripotent cells” (The Board of Trustees of the Leland Stanford Junior …, priority 2009, dated 2018).

Assays:
mouse fetal germ cells = mouse fetal germ cells incubated with PAHs; cited from earlier work
[1] = system: hESCs (H9) differentiating to germ cells; experiment: qPCR gene expression in hESCs differentiated with BMPs in the presence of PAHs; format: cell-based, human
Description: (§1) A federally approved hESC line (H9, XX) was maintained and differentiated as previously described (see methods of Kee, K., et al. (2006) Stem Cells & Differentiation 15: 831-837, the disclosure of which is incorporated herein). Briefly, adherent differentiation began upon the addition of differentiation media containing 20% FBS (Hyclone) and supplemented with Bone Morphogenetic Proteins (BMPs) -4, -7, and -8b (R&D) reconstituted in 4 mM HCl/0.1% BSA and used at 50 ng/ml. DMBA (Sigma), ANF (Sigma) and DMBA-DHD(MRI) were dissolved in DMSO at a 1:1000 dilution before adding to the media to the indicated final concentrations.
Total RNA was extracted using the RNeasy kit (Qiagen) and cDNA prepared with SuperScriptIII (Invitrogen) according to the manufacturer's protocols using 1 μg RNA. The cDNA was subjected to a pre-amplification using 1.25 μl out of 20 μl total cDNA, 1 μl Platinum Taq (Invitrogen), 5 μl CellsDirect 2× Reaction Buffer and 2.5 μl 0.2× Taqman (Applied Biosystem) probe mix. PCR cycle program for pre-amplification is: 95° C., 10 minutes; 95° C., 15 seconds and 60° C., 4 minutes for 14 cycles. Assays and samples are prepared according to the Fluidigm protocol and run on a 48×48 chip. BioMark (Fluidigm) program was used to obtain delta Ct value before imported into Excel file sheet to calculate delta-delta Ct value=2^(CtGene−CtHousekeeping genes). The delta-delta Ct value is then normalized to the control of each experiment to obtain the final normalized expression level. All delta-delta Ct values were calculated using four housekeeping genes (GAPDH, CTNNB1, ACTS, CENTRIN) except in experiment in FIG. 35, which only used GAPDH as housekeeping gene in a regular qPCR reaction in 7300 Real Time PCR System (Applied Biosystems).

[2] = system: VASA:GFP+ and VASA:GFP− cells; experiment: Caspase 3/7 apoptosis assay in FACS-sorted cells; format: cell-based, human; settings: 1 μM DMBA-DHD
Description: Single cell suspensions were prepared by incubating differentiated hESCs in Collagenase Type IV (1 mg/ml) for ten minutes, followed by ten minutes in TrypLE (Invitrogen). Cell pellet was resuspended in 0.5 ml differentiated media and passed through a 40 μm strainer. Cell suspensions were then subjected to FACS analysis with BD FACSAria system (BD). Cells were sorted for either VASA:GFP+ or VASA:GFP−. 1000 cells of each group were collected in 100 μl PBS and mixed with 100 μl of Caspase-Glo 3/7 reagent according to manufacturer protocol (Promega). Luminescence was measured after 1 hour of incubation at room temperature with Fluostar Optima (BMG).

[3] = system: VASA:GFP+ PGCs from hESCs; experiment: VASA:GFP reporter FACS of hESCs with DMBA-DHD and shAHR (Example 3); format: cell-based, human
Description: as §1
shRNA was used to target AHR by the BLOCK-IT™ Inducible H1 Lentiviral RNAi System (Invitrogen). Double stranded oligos were generated, ligated into the pENTR vector and transfected into 293FT cells for initial screening. After 24 hours, RNA was harvested using the RNeasy kit and cDNA generated using SuperScriptIII with 1 μg total RNA input. The destination lentiviral vector was generated by recombining the pENTR vector with the pLenti4/BLOCK-it-DEST vector via the Gateway technology according to the manufacturer's protocol. Lentiviral supernatant carrying the pLenti4/BLOCK-it-DEST-shAHR vector was generated by co-transfection with 10 μg of each vector with 10 μg Vsvg and 15 μg Δ8.9 into 293FT cells grow on T175 plates. Supernatant was harvested after three days and either used immediately for transduction of hESCs or frozen at −80° C. until further usage. hESCs prepared for transduction were plated to 50% confluency on matrigel coated plates. Polybrene was added to the lentivirus supernatant for a final concentration of 8 μg/ml. […]
Single cell suspensions were prepared by incubating differentiated hESCs in Collagenase Type IV (1 mg/ml) for ten minutes, followed by ten minutes in TrypLE (Invitrogen). […] Luminescence was measured after 1 hour of incubation at room temperature with Fluostar Optima (BMG).

DAZ = experiment: shRNA silencing of DAZ2-V5 and DAZ1-4 in 293T/293FT cells (Western); format: cell-based, human; settings: for Protein level of DAZ2-V5: cotransfected
Description: All shRNAs targeting human DAZL, DAZ and BOULE were constructed using the Block-iT inducible H1 lentiviral system (Invitrogen). All shRNAs were first introduced into pENTR/H1/TO vectors and transferred into pLenti4/BLOCK-iT-DEST destination vectors (see below for sequence information). When shRNA was tested in 293FT cells for its efficacy of silencing, transient transfection without selection was carried out and cell lysate was collected after 24 h. After specific shRNA was chosen, viral supernatant was prepared as described for pLVGV. Subsequently, the viral supernatant was used to transduce human ES cells on matrigel as described above, except with zeocin selection (2 μg/ml) for 3 days for stable integration of the shRNA vector into human ES cells. Overexpression vectors were constructed by inserting the EF1μ, promoter, and DAZL, DAZ2 or BOULE cDNA into the p2k7bias vectors, selected with blasticidin (2 μg ml^−1) in culture for 3 days to ensure stable integration and subjected for each differentiation experiment. shRNA sequences were:
cDNA clones of DAZ1-4 (NCBI accession numbers: DAZ1, BC11492; DAZ2, NM_020363; DAZ3, BC113005; DAZ4, BC047480) were obtained from ATCC, PCR amplified, cloned into pENTR-D-TOPO vector, and subsequently cloned into pLenti4/TO/V5-DEST (Invitrogen). […] Co-transfection of the overexpression vector and shDAZ4 at the ratio of 1:1 and 1:2 into 293FT cells was carried out and all the lysates were collected after 24 h and loaded equally onto 10% SDS-PAGE gel.

DAZL and VASA = experiment: Western blot of DAZL and VASA in human ES cells after silencing/overexpression; format: cell-based; settings: human ES cells differentiated 14 days with BMPs
Description: (§2) To collect the adherently differentiated cells, cells were washed with 3 ml cold PBS without Ca^2+ and Mg^2+, then scraped from the plate in 1 ml PBS plus 2× protease inhibitors (Complete Mini, Roche) and transferred immediately to a 1.5-ml tube on ice. The PBS cell suspension was then spun at 5,000 r.p.m. in a microcentrifuge for 3 min and the supernatant was discarded. The cell pellet was resuspended with 200 ul RIPA buffer (50 mM Tris, 150 mM NaCl, 0.5% sodium deoxycholate, 1% NP-40, 0.1% SDS, pH 8) plus 2× protease inhibitors (Complete Mini, Roche). The cell pellet suspension was pipetted rigorously at least 10 times, then vortexed for 30 sec. The suspension was again spun down for 3 min at the same speed. The supernatant was measured for protein concentration and denatured at a 1:1 ratio with 2× Laemmli buffer at 95° C. for 5 min, then loaded onto either a 10% or 12% SDS-PAGE gel. The SDS-PAGE gels were run at 150 V for 1 h and transferred to a PVDF membrane for 1 h at 100 V in CAPS buffer (10 mM CAPS, 10% methanol, pH 11). Transferred blots were blocked in 5% non-fat milk for 1 h at room temperature. […]

DAZL = experiment: shRNA silencing of DAZL-V5 / DAZL:GFP cotransfected in 293T cells; format: cell-based, human
Description: as §2

[4] = system: VASA-GFP+ population of human ES cells (H9, HSF1); experiment: VASA-GFP reporter FACS of differentiated human ES cells (Example 1); format: cell-based; settings: XX line (H9), 14 days
Description: 2.5 kb of human VASA upstream of the first codon was cloned into pENTR 5′-TOPO. EGFP was fused 1 kb downstream of the last codon of human VASA, and cloned into pENTR/D-TOPO. Cloned plasmids were recombined (Suter, D. M. et al. (2006) Stem Cells 24, 615-623) to create pLVGV. Lentiviral supernatant was produced, human ES cells were transduced overnight on matrigel in conditioned medium and subsequently selected with geneticin ([…]) for 7 days. Selected human ES cells were differentiated for the times indicated and harvested by brief treatment with collagenase IV and then TrypLEExpress (Invitrogen). The cell suspension was prepared in differentiation medium for FACS with a MoFlow or BD cell sorter.
Four human ES cell lines were used in this study: HSF1 (XY), HSF6 (XX), H1 (XY) and H9 (XX). Undifferentiated cultures of human ES cells were maintained on irradiated MEFs as previously described in Kee, K. et al (2006) Stem Cells Dev. 15: 831-837. Briefly, all cultures were grown at 37° C. with 5% CO2 in knockout serum replacer (KSR) plus bFGF medium (knockout DMEM, supplemented with 20% knockout serum replacer, 1 mM L-glutamine, 0.1 mM nonessential amino acids, 0.1 mM 2-mercaptoethanol, and 4 ng ml^−1 recombinant human bFGF (bFGF, R&D systems)). […]

O=c1cc(-c2ccccc2)oc2c1ccc1ccccc12 [ANF, α-napthoflavone]
Fetal germ cell toxicity of PAHs (mouse fetal germ cells): could be prevented | Rescue of KDR and NES expression ([1]; ANF added with DMBA-DHD): no rescue | Expression of germ cell markers VASA, DAZL and PRDM1 ([1]; ANF added with DMBA-DHD, relative to DMBA-DHD addition alone): increased | BAX expression ([1]; ANF added with DMBA-DHD, relative to DMBA-DHD alone): decreased

Cc1c2ccccc2c(C)c2c3c(ccc12)C(O)C(O)C=C3 (centres unmarked) [DMBA-DHD, DMBA-3,4-dihydrodiol]
Apoptosis activity (Caspase 3/7) ([2]; VASA:GFP+ cells): significantly increased | Apoptosis activity (Caspase 3/7) ([2]; VASA:GFP− cells): not in the VASA:GFP− cells | Number of PGCs out of 20,000 differentiated hESCs ([3]; hESCs carrying shLacZ, 1 μM DMBA-DHD, control 908): ~626 | Percentage of VASA:GFP+ PGCs ([3]; hESCs carrying shLacZ, 14 days BMP induction, 1 μM DMBA-DHD, untreated control 4.5%): 3.1% | Reduction in human PGCs ([3]; in the presence of DMBA-DHD): less than two-fold | Potency relative to DMBA (decrease in germ cell specific gene expression) ([1]; 0.1 μM DMBA-DHD comparable to 1 μM DMBA, 1 μM DMBA-DHD more potent than 10 μM DMBA): at least one log | Expression of AFP and CDX2 ([1]; hESCs differentiated with BMPs): not reproducibly reduced | Expression of somatic markers KDR and NES ([1]; hESCs differentiated with BMPs): did not significantly alter | Increase of BAX expression ([1]; hESCs differentiated with BMPs, vs DMSO control): 20 fold

shDAZ1: shRNA 5′-GCAAATCCTGAGACTCCAAAC-3′, SEQ ID NO: 31
Protein level of DAZ2-V5 (DAZ): significantly decreased

shDAZ3: shRNA 5′-GCCACGTCCTTTGGTAGTTAA-3′, SEQ ID NO: 33
Protein level of DAZ2-V5 (DAZ): significantly decreased

shDAZ4: shRNA 5′-GCATTTCCTGCTTATCCAAAT-3′, SEQ ID NO: 34
Silencing of DAZ1-4 proteins (DAZ; 293FT cells): all four DAZ proteins were silenced | Protein level of DAZ2-V5 (DAZ): significantly decreased

shDAZ5: shRNA 5′-GCATTTCCTGCTTATCCAAGT-3′, SEQ ID NO: 35
Protein level of DAZ2-V5 (DAZ): significantly decreased

shDAZL2: shRNA 5′-GCATATCCTACTTACCCAAAT-3′, SEQ ID NO: 25
Expression of DAZL and VASA (DAZL and VASA): significantly reduced | Silencing of DAZL:GFP fusion protein (DAZL): most effective

shDAZL4: shRNA 5′-GCAGAAGATAGTAGAATCACA-3′, SEQ ID NO: 27
VASA-GFP+ population [4]: reduced | Expression of DAZL and VASA (DAZL and VASA): significantly reduced | Silencing of DAZL:GFP fusion protein (DAZL): most effective silencer for DAZL
